Assays:
Test in all cases: relative viability (nuclei count vs DMSO), 5 days (fraction); higher = more cells survive
[1] = compound: CC1=C(C(=NN1)C)CC2=C(C3=C(S2)N(C(=O)N(C3=O)C)CC(C)C)C(=O)N4C[C@@H](CO4)O + N=C(N)NC(=N)NCCc1ccccc1 [Phenformin] (partner 250 µM)
Method in brief: (§1)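 A single step with final 0.05% Triton X-100, 1% formaldehyde and 1 ug/ml Hoechst fixed the cells and stained nuclei 5 days after treatment. Lung cancer cell lines in 1536-well plates had been treated by pin tool the day after seeding with one drug alone or a fixed anchor-drug dose plus five library-drug doses (not always all listed) in √10 steps, and nuclei were counted on 4× images. Relative viability is the ratio of nuclei in treated wells to nuclei in vehicle wells, taken as the median of duplicate plates.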

[2] = compound: CC1=C(C(=NN1)C)CC2=C(C3=C(S2)N(C(=O)N(C3=O)C)CC(C)C)C(=O)N4C[C@@H](CO4)O + CC(=O)Nc1cccc(-n2c(=O)n(C3CC3)c(=O)c3c(Nc4ccc(I)cc4F)n(C)c(=O)c(C)c32)c1 [Trametinib] (partner 0.02 µM)
Method in brief: as §1

[3] = compound: CC1=C(C(=NN1)C)CC2=C(C3=C(S2)N(C(=O)N(C3=O)C)CC(C)C)C(=O)N4C[C@@H](CO4)O + Cc1nc(NC(=O)N2CCC[C@H]2C(N)=O)sc1-c1ccnc(C(C)(C)C(F)(F)F)c1 [Alpelisib] (partner 2 µM)
Method in brief: as §1

IDH-C35 + Vorinostat = compound: Cc1ccccc1C(C(=O)NC1CCCCC1)N(C(=O)Cn1ccnc1C)c1cccc(F)c1 [IDH-C35] + O=C(CCCCCCC(=O)Nc1ccccc1)NO [Vorinostat] (partner 1 µM)
Method in brief: as §1

Cell Line | relative viability ([1]; first compound 0.0025 µM) | relative viability ([1]; first compound 0.007906 µM) | relative viability ([1]; first compound 0.025 µM) | relative viability ([1]; first compound 0.07906 µM) | relative viability ([1]; first compound 0.25 µM) | relative viability ([2]; first compound 0.0025 µM) | relative viability ([2]; first compound 0.007906 µM) | relative viability ([2]; first compound 0.025 µM) | relative viability ([2]; first compound 0.07906 µM) | relative viability ([2]; first compound 0.25 µM) | relative viability ([3]; first compound 0.0025 µM) | relative viability ([3]; first compound 0.007906 µM) | relative viability ([3]; first compound 0.025 µM) | relative viability ([3]; first compound 0.07906 µM) | relative viability ([3]; first compound 0.25 µM) | relative viability (IDH-C35 + Vorinostat; first compound 0.08 µM) | relative viability (IDH-C35 + Vorinostat; first compound 0.253 µM) | relative viability (IDH-C35 + Vorinostat; first compound 0.8 µM) | relative viability (IDH-C35 + Vorinostat; first compound 2.53 µM) | relative viability (IDH-C35 + Vorinostat; first compound 8 µM)
NCI-H1915 | 0.365 | 0.329 | 0.358 | 0.345 | 0.357 | 0.295 | 0.307 | 0.288 | 0.302 | 0.32 | 1.09 | 1.11 | 1.1 | 1.15 | 1.07 | 0.499 | 0.52 | 0.488 | 0.451 | 0.574
NCI-H1944 | 0.184 | 0.222 | 0.186 | 0.195 | 0.175 | 0.422 | 0.438 | 0.478 | 0.396 | 0.385 | 0.858 | 0.858 | 0.921 | 0.847 | 0.761 | 0.496 | 0.613 | 0.474 | 0.538 | 0.566
NCI-H1975 | 0.401 | 0.426 | 0.401 | 0.389 | 0.376 | 0.38 | 0.358 | 0.403 | 0.491 | 0.33 | 0.668 | 0.538 | 0.723 | 0.719 | 0.745 | 0.73 | 0.726 | 0.701 | 0.716 | 0.649
NCI-H1993 | 0.495 | 0.416 | 0.457 | 0.433 | 0.436 | 0.627 | 0.0091 | 0.553 | 0.641 | 0.522 | 0.69 | 0.608 | 0.719 | 0.615 | 0.722 | 0.726 | 0.717 | 0.77 | 1.08 | 0.897
NCI-H2009 | 0.487 | 0.484 | 0.455 | 0.557 | 0.503 | 0.318 | 0.286 | 0.289 | 0.287 | 0.237 | 1.31 | 1.23 | 1.14 | 1.26 | 1.15 | 0.762 | 0.688 | 0.758 | 0.69 | 0.681
NCI-H2023 | 0.382 | 0.437 | 0.361 | 0.431 | 0.412 | 0.667 | 0.613 | 0.562 | 0.599 | 0.575 | 0.621 | 0.635 | 0.593 | 0.58 | 0.622 | 0.667 | 0.799 | 0.68 | 0.634 | 0.636
NCI-H2085 | 0.677 | 0.674 | 0.589 | 0.571 | 0.44 | 0.844 | 0.586 | 0.575 | 0.608 | 0.549 | 0.989 | 0.975 | 0.831 | 0.855 | 0.873 | 0.88 | 0.784 | 0.81 | 0.86 | 0.719
NCI-H2087 | 0.45 | 0.474 | 0.395 | 0.471 | 0.447 | 0.248 | 0.202 | 0.213 | 0.201 | 0.208 | 0.952 | 1.03 | 1.12 | 1.31 | 1.18 | 0.821 | 0.715 | 0.74 | 0.624 | 0.633
NCI-H2126 | 0.583 | 0.526 | 0.523 | 0.529 | 0.585 | 0.527 | 0.57 | 0.548 | 0.551 | 0.577 | 0.773 | 0.847 | 0.732 | 0.736 | 0.682 | 0.683 | 0.806 | 0.698 | 0.5 | 0.61
NCI-H2170 | 0.377 | 0.384 | 0.432 | 0.378 | 0.378 | 0.909 | 0.966 | 0.956 | 0.756 | 0.94 | 0.918 | 0.868 | 0.705 | 0.819 | 0.786 | 0.796 | 0.809 | 0.804 | 0.844 | 0.85
NCI-H2228 | 0.366 | 0.377 | 0.327 | 0.403 | 0.247 | 0.788 | 0.584 | 0.578 | 0.662 | 0.577 | 0.911 | 0.673 | 1.01 | 0.722 | 0.9 | 0.64 | 0.632 | 0.563 | 0.754 | 0.648
NCI-H2347 | 0.455 | 0.429 | 0.295 | 0.275 | 0.264 | 0.269 | 0.313 | 0.301 | 0.274 | 0.265 | 1.16 | 1.01 | 1.11 | 0.964 | 0.964 | 0.4 | 0.682 | 0.531 | 0.59 | 0.656
NCI-H2405 | 0.348 | 0.286 | – | 0.277 | 0.268 | 0.689 | 0.627 | 0.618 | 0.673 | 0.692 | 0.735 | 0.688 | – | 0.78 | 0.669 | 1.08 | 0.956 | 0.968 | 1.24 | 1.02
NCI-H3122 | 0.385 | 0.365 | 0.364 | 0.392 | 0.375 | 0.226 | 0.305 | 0.254 | 0.187 | 0.229 | 0.813 | 0.816 | 0.788 | 0.783 | 0.706 | 1.01 | 0.947 | 0.793 | 0.773 | 1.08

Source: the supplement of paper PMC10307832
